We go through two compounds from patent US20230133958A1, “COMPOUNDS USEFUL IN MODULATING EGFR AND PI3K” (Mekanistic Therapeutics LLC, priority 2021, published 2023).

Some results are limits rather than exact numbers.

Holding throughout (type): cell-based
The test system of one experiment is MCF7. The experiment can be described thus: NCI COMPARE panel (SRB growth inhibition), MCF7. The settings on record: Homo sapiens; Breast Cancer, MCF7, 48 h. How it is done:
(§1) The human tumor cell lines of the cancer screening panel are grown in RPMI 1640 medium containing 5% fetal bovine serum and 2 mM L-glutamine. For a typical screening experiment, cells are inoculated into 96 well microtiter plates in 100 µL at plating densities ranging from 5,000 to 40,000 cells/well depending on the doubling time of individual cell lines. After cell inoculation, the microtiter plates are incubated at 37° C., 5% CO2, 95% air and 100% relative humidity for 24 h prior to addition of experimental drugs.
(§2) After 24 h, two plates of each cell line are fixed in situ with TCA, to represent a measurement of the cell population for each cell line at the time of drug addition (Tz). Experimental drugs are solubilized in dimethyl sulfoxide at 400-fold the desired final maximum test concentration and stored frozen prior to use. […]
(§3) Following drug addition, the plates are incubated for an additional 48 h at 37° C., 5 % CO2, 95% air, and 100% relative humidity. […] Bound stain is subsequently solubilized with 10 mM trizma base, and the absorbance is read on an automated plate reader at a wavelength of 515 nm. […] Using the seven absorbance measurements [time zero, (Tz), control growth, (C), and test growth in the presence of drug at the five concentration levels (Ti)], the percentage growth is calculated at each of the drug concentrations levels. Percentage growth inhibition is calculated as: […]

The next experiment deals with MDA-MB-231/ATCC. Nature of the experiment: NCI COMPARE panel (SRB growth inhibition), MDA-MB-231/ATCC. Particulars: Homo sapiens, Breast Cancer, 48 h. How it is done: as §1, §2, §3
The subject of another experiment is T-47D. Nature of the experiment: NCI COMPARE panel (SRB growth inhibition), T-47D. Particulars: Homo sapiens, T47D, Breast Cancer, 48 h. On the procedure: as §1, §2, §3
Another experiment has as its system MDA-MB-468. Nature of the experiment: NCI COMPARE panel (SRB growth inhibition), MDA-MB-468. Particulars: Homo sapiens; Breast Cancer, MDA-MB-468, 48 h. How it is done: as §1, §2, §3
Another experiment deals with SF-539. Nature of the experiment: NCI COMPARE panel (SRB growth inhibition), SF-539. Particulars: Homo sapiens; CNS Cancer, SF-539, 48 h. On the procedure:
as §1, §2, §3

The next experiment concerns HCT-15. The experiment can be described thus: NCI COMPARE panel (SRB growth inhibition), HCT-15. Particulars: Homo sapiens; Colon Cancer, HCT-15, 48 h. How it is done: as §1, §2, §3
The test system of a further experiment is HT29. The experiment can be described thus: NCI COMPARE panel (SRB growth inhibition), HT29. The settings on record: Homo sapiens, HT-29; Colon Cancer, HT29, 48 h. How it is done: as §1, §2, §3
Another experiment concerns SW-620. The experiment can be described thus: NCI COMPARE panel (SRB growth inhibition), SW-620. Particulars: Homo sapiens; Colon Cancer, SW-620, 48 h. How it is done: as §1, §2, §3
For the next experiment, the system named is HL-60(TB). The experiment can be described thus: NCI COMPARE panel (SRB growth inhibition), HL-60(TB). The settings on record: Homo sapiens, Leukemia, 48 h. How it is done:
as §1, §2, §3

The test system of a further experiment is RPMI-8226. Nature of the experiment: NCI COMPARE panel (SRB growth inhibition), RPMI-8226. The settings on record: Homo sapiens; Leukemia, RPMI-8226, 48 h. On the procedure:
as §1, §2, §3

In another experiment the test system is MALME-3M. Nature of the experiment: NCI COMPARE panel (SRB growth inhibition), MALME-3M. Particulars: Homo sapiens, Melanoma, 48 h. How it is done:
as §1, §2, §3

For a further experiment, the system named is MDA-MB-435. The experiment can be described thus: NCI COMPARE panel (SRB growth inhibition), MDA-MB-435. The settings on record: Homo sapiens; Melanoma, MDA-MB-435, 48 h. How it is done: as §1, §2, §3
For a further experiment, the system named is SK-MEL-2. Nature of the experiment: NCI COMPARE panel (SRB growth inhibition), SK-MEL-2. Particulars: Homo sapiens; Melanoma, SK-MEL-2, 48 h. How it is done: as §1, §2, §3
Another experiment relates to SK-MEL-28. Nature of the experiment: NCI COMPARE panel (SRB growth inhibition), SK-MEL-28. Particulars: Homo sapiens; Melanoma, SK-MEL-28, 48 h. On the procedure: as §1, §2, §3
A further experiment concerns UACC-62. Nature of the experiment: NCI COMPARE panel (SRB growth inhibition), UACC-62. Particulars: Homo sapiens; Melanoma, UACC-62, 48 h. On the procedure: as §1, §2, §3
The test system of a further experiment is EKVX. Nature of the experiment: NCI COMPARE panel (SRB growth inhibition), EKVX. Particulars: Homo sapiens, Non-Small Cell Lung Cancer, 48 h. On the procedure: as §1, §2, §3
The subject of the next experiment is HOP-62. Nature of the experiment: NCI COMPARE panel (SRB growth inhibition), HOP-62. Particulars: Homo sapiens; Non-Small Cell Lung Cancer, HOP-62, 48 h. How it is done:
as §1, §2, §3

Another experiment deals with NCI-H23. The experiment can be described thus: NCI COMPARE panel (SRB growth inhibition), NCI-H23. The settings on record: Homo sapiens; Non-Small Cell Lung Cancer, NCI-H23, 48 h. How it is done:
as §1, §2, §3

In another experiment the test system is IGROV1. The experiment can be described thus: NCI COMPARE panel (SRB growth inhibition), IGROV1. The settings on record: Homo sapiens, IGROV-1; Ovarian Cancer, IGROV1, 48 h. How it is done:
as §1, §2, §3

The next experiment concerns OVCAR-4. The experiment can be described thus: NCI COMPARE panel (SRB growth inhibition), OVCAR-4. The settings on record: Homo sapiens; Ovarian Cancer, OVCAR-4, 48 h. How it is done: as §1, §2, §3
In a further experiment the test system is SK-OV3. The experiment can be described thus: NCI COMPARE panel (SRB growth inhibition), SK-OV3. Particulars: Homo sapiens, SK-OV-3; Ovarian Cancer, SK-OV3, 48 h. How it is done:
as §1, §2, §3

A further experiment has as its system PC-3. Nature of the experiment: NCI COMPARE panel (SRB growth inhibition), PC-3. The settings on record: Homo sapiens; Prostate Cancer, PC-3, 48 h. How it is done: as §1, §2, §3
A further experiment concerns ACHN. The experiment can be described thus: NCI COMPARE panel (SRB growth inhibition), ACHN. Particulars: Homo sapiens, Renal Cancer, 48 h. How it is done:
as §1, §2, §3

For another experiment, the system named is UO-31. The experiment can be described thus: NCI COMPARE panel (SRB growth inhibition), UO-31. Particulars: Homo sapiens; Renal Cancer, UO-31, 48 h. On the procedure:
as §1, §2, §3

`CS(=O)(=O)Nc1cc(-c2ccc3ncc(C#N)c(Nc4cccc(Cl)c4F)c3c2)cnc1Cl` [Compound 10, N-[2-chloro-5-[4-(3-chloro-2-fluoro-anilino)-3-cyano-6-quinolyl]-3-pyridyl]methanesulfonamide]: the GI50 with MCF7 was ≤ 0.075 µM; with MDA-MB-231/ATCC, > 0.25 µM; with T-47D it was 0.125 to 0.25 µM; in the experiment with MDA-MB-468 it was ≤ 0.075 µM; in the experiment on SF-539 it was 0.125 to 0.25 µM; in the experiment with HCT-15 it was 0.075 to 0.125 µM. The GI50 was > 0.25 µM in the experiment on HT29; ≤ 0.075 µM in the experiment with SW-620; ≤ 0.075 µM with HL-60(TB); ≤ 0.075 µM in the experiment with RPMI-8226; 0.075 to 0.125 µM in the experiment with MALME-3M; 0.125 to 0.25 µM in the experiment on MDA-MB-435. The GI50 is ≤ 0.075 µM with SK-MEL-2; 0.125 to 0.25 µM in the experiment with SK-MEL-28; 0.075 to 0.125 µM in the experiment with UACC-62; > 0.25 µM with EKVX; 0.125 to 0.25 µM in the experiment on HOP-62; 0.125 to 0.25 µM in the experiment on NCI-H23. Further, the GI50 with IGROV1 is 0.075 to 0.125 µM; with OVCAR-4, > 0.25 µM; in the experiment with SK-OV3, > 0.25 µM; in the experiment with PC-3, 0.125 to 0.25 µM; with ACHN it was > 0.25 µM; in the experiment with UO-31, 0.125 to 0.25 µM.
`CS(=O)(=O)Nc1cc(-c2ccc3ncnc(Nc4cccc(Cl)c4F)c3c2)cnc1Cl` [Compound 6, N-[2-chloro-5-[4-(3-chloro-2-fluoro-anilino)quinazolin-6-yl]-3-pyridyl] methanesulfonamide]: the GI50 is ≤ 0.075 µM in the experiment on MCF7; 0.125 to 0.25 µM in the experiment with MDA-MB-231/ATCC; ≤ 0.075 µM in the experiment on T-47D; 0.125 to 0.25 µM in the experiment on MDA-MB-468; 0.125 to 0.25 µM with SF-539; 0.125 to 0.25 µM in the experiment with HCT-15. Moreover, the GI50 in the experiment on HT29 was 0.125 to 0.25 µM; in the experiment with SW-620, > 0.25 µM; in the experiment with HL-60(TB), 0.075 to 0.125 µM; in the experiment on RPMI-8226, 0.125 to 0.25 µM; in the experiment on MALME-3M, ≤ 0.075 µM; with MDA-MB-435, 0.125 to 0.25 µM. In addition, the GI50 in the experiment on SK-MEL-2 is 0.125 to 0.25 µM; with SK-MEL-28, 0.075 to 0.125 µM; with UACC-62, ≤ 0.075 µM; in the experiment with EKVX, 0.075 to 0.125 µM; in the experiment with HOP-62, 0.075 to 0.125 µM; in the experiment on NCI-H23, 0.125 to 0.25 µM. In addition, the GI50 with IGROV1 was ≤ 0.075 µM; in the experiment with OVCAR-4 it was > 0.25 µM; in the experiment with SK-OV3, 0.075 to 0.125 µM; in the experiment on PC-3, 0.125 to 0.25 µM; in the experiment on ACHN it was 0.125 to 0.25 µM; with UO-31, ≤ 0.075 µM.

By GI50 is commonly meant the concentration that inhibits growth by half. The low end stands for greater sensitivity of the cells, the high end for lower sensitivity of the cells.
